Target: T1, human β-secretase (Homo sapiens, UniProt P56817)
T1 construct: The soluble part of the human β-secretase (AA 1-AA 460) was cloned; made in house
Experiment: TR-FRET assay (β-secretase enzyme, sBACE-Fc)
Format: biochemical
Conditions: read-out: IC50 in TR-FRET assay
Method: The enzyme used in the IGEN Cleavage-, Fluorescent-, TR-FRET- and BiaCore assays is described as follows:
The soluble part of the human β-secretase (AA 1-AA 460) was cloned into the ASP2-F10-1-IRES-GFP-neoK mammalian expression vector. The gene was fused to the Fc domain of IgG1 (affinity tag) and stably cloned into HEK 293 cells. Purified sBACE-Fc is stored in Tris buffer, pH 9.2 and has a purity of 95%.
Enzyme was diluted to 6 μg/mL and the substrate (Europium)[…](Qsy7) to 200 nM in reaction buffer (NaAcetate, chaps, triton x-100, EDTA pH 4.5). Compounds were diluted to the desired concentration in dimethyl sulfoxide (final dimethyl sulfoxide concentration in assay is 5%). […] Enzyme (9 μL) and 1 μL of compound in dimethyl sulfoxide was added to the plate, mixed and pre-incubated for 10 min. Substrate (10 μL) was added and the reaction proceeded in the dark for 15 min at RT. The reaction was stopped with the addition of 7 μL NaAcetate, pH 9. […] The dimethyl sulfoxide control defined the 100% activity level and 0% activity was defined by exclusion of the enzyme (using reaction buffer instead).

T1 sequence (P56817 22-460): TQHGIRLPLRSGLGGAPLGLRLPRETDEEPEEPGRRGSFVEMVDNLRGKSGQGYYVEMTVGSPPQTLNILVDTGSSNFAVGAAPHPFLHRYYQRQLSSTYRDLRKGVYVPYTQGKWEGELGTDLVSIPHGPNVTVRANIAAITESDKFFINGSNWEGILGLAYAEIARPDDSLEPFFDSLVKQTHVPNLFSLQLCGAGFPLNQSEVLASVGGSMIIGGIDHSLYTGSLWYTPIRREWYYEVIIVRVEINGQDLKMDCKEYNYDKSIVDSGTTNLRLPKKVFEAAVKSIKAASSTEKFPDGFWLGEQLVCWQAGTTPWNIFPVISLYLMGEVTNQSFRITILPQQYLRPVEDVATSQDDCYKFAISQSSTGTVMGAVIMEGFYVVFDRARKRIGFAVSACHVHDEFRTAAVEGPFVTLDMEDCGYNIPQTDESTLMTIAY

Structure (SMILES)	IC50 [nM]
NC1=NC(c2cccc(OS(=O)(=O)C(F)(F)F)c2)(c2cccc(-c3cccc(Cl)c3)c2)C2=NCCCN12 (stereo not drawn) [Example 115, 3-[6-Amino-8-(3′-chlorobiphenyl-3-yl)-2,3,4,8-tetrahydroimidazo[1,5-a]pyrimidin-8-yl]phenyl trifluoromethanesulfonate]	106
CS(=O)(=O)Oc1cccc(C2(c3cccc(-c4cc(Cl)cc(Cl)c4)c3)N=C(N)N3CCCN=C32)c1 (stereo not drawn) [Example 116, 3-[6-Amino-8-(3′,5′-dichlorobiphenyl-3-yl)-2,3,4,8-tetrahydroimidazo[1,5-a]pyrimidin-8-yl]phenyl methanesulfonate]	285
CS(=O)(=O)Oc1cccc(C2(c3cccc(-c4cccc(Cl)c4)c3)N=C(N)N3CCCN=C32)c1 (stereo not drawn) [Example 117, 3-[6-Amino-8-(3′-chlorobiphenyl-3-yl)-2,3,4,8-tetrahydroimidazo[1,5-a]pyrimidin-8-yl]phenyl methanesulfonate]	252
COc1cccc(-c2cccc(C3(c4cccc(OS(C)(=O)=O)c4)N=C(N)N4CCCN=C43)c2)c1 (stereo not drawn) [Example 118, 3-[6-Amino-8-(3′-methoxybiphenyl-3-yl)-2,3,4,8-tetrahydroimidazo[1,5-a]pyrimidin-8-yl]phenyl methanesulfonate]	645
CS(=O)(=O)Oc1cccc(C2(c3cccc(-c4cccnc4)c3)N=C(N)N3CCCN=C32)c1 (stereo not drawn) [Example 119, 3-[6-Amino-8-(3-pyridin-3-ylphenyl)-2,3,4,8-tetrahydroimidazo[1,5-a]pyrimidin-8-yl]phenyl methanesulfonate]	754
CS(=O)(=O)Oc1cccc(C2(c3cccc(-c4cncnc4)c3)N=C(N)N3CCCN=C32)c1 (stereo not drawn) [Example 120, 3-[6-Amino-8-(3-pyrimidin-5-ylphenyl)-2,3,4,8-tetrahydroimidazo[1,5-a]pyrimidin-8-yl]phenyl methanesulfonate]	272
CS(=O)(=O)Oc1cccc(C2(c3cccc(-c4cc(Cl)cnc4F)c3)N=C(N)N3CCCN=C32)c1 (stereo not drawn) [Example 121, 3-{6-Amino-8-[3-(5-chloro-2-fluoropyridin-3-yl)phenyl]-2,3,4,8-tetrahydroimidazo[1,5-a]pyrimidin-8-yl}phenyl methanesulfonate]	893
Cc1cc(C)cc(-c2cccc(C3(c4cccc(OS(C)(=O)=O)c4)N=C(N)N4CCCN=C43)c2)c1 (stereo not drawn) [Example 122, 3-[6-Amino-8-(3′,5′-dimethylbiphenyl-3-yl)-2,3,4,8-tetrahydroimidazo[1,5-a]pyrimidin-8-yl]phenyl methanesulfonate]	69
CCCS(=O)(=O)Oc1cccc(C2(c3cccc(-c4cc(Cl)cc(Cl)c4)c3)N=C(N)N3CCCN=C32)c1 (stereo not drawn) [Example 123, 3-[6-Amino-8-(3′,5′-dichlorobiphenyl-3-yl)-2,3,4,8-tetrahydroimidazo[1,5-a]pyrimidin-8-yl]phenyl propane-1-sulfonate]	106
CCCS(=O)(=O)Oc1cccc(C2(c3cccc(-c4cccc(OC)c4)c3)N=C(N)N3CCCN=C32)c1 (stereo not drawn) [Example 124, 3-[6-Amino-8-(3′-methoxybiphenyl-3-yl)-2,3,4,8-tetrahydroimidazo[1,5-a]pyrimidin-8-yl]phenyl propane-1-sulfonate]	528
CCCS(=O)(=O)Oc1cccc(C2(c3cccc(-c4cncnc4)c3)N=C(N)N3CCCN=C32)c1 (stereo not drawn) [Example 125, 3-[6-Amino-8-(3-pyrimidin-5-ylphenyl)-2,3,4,8-tetrahydroimidazo[1,5-a]pyrimidin-8-yl]phenyl propane-1-sulfonate]	51
NC1=NC(c2cccc(OS(=O)(=O)C3CC3)c2)(c2cccc(-c3cc(Cl)cc(Cl)c3)c2)C2=NCCCN12 (stereo not drawn) [Example 126, 3-[6-Amino-8-(3′,5′-dichlorobiphenyl-3-yl)-2,3,4,8-tetrahydroimidazo[1,5-a]pyrimidin-8-yl]phenyl cyclopropanesulfonate]	156
COc1cccc(-c2cccc(C3(c4cccc(OS(=O)(=O)C5CC5)c4)N=C(N)N4CCCN=C43)c2)c1 (stereo not drawn) [Example 127, 3-[6-Amino-8-(3′-methoxybiphenyl-3-yl)-2,3,4,8-tetrahydroimidazo[1,5-a]pyrimidin-8-yl]phenyl cyclopropanesulfonate]	177
NC1=NC(c2cccc(OS(=O)(=O)C(F)(F)F)c2)(c2cccc(-c3cc(Cl)cc(Cl)c3)c2)C2=NCCCN12 (stereo not drawn) [Example 128, 3-[6-Amino-8-(3′,5′-dichlorobiphenyl-3-yl)-2,3,4,8-tetrahydroimidazo[1,5-a]pyrimidin-8-yl]phenyl trifluoromethanesulfonate]	214
COc1cccc(-c2cccc(C3(c4cccc(OS(=O)(=O)C(F)(F)F)c4)N=C(N)N4CCCN=C43)c2)c1 (stereo not drawn) [Example 129, 3-[6-Amino-8-(3′-methoxybiphenyl-3-yl)-2,3,4,8-tetrahydroimidazo[1,5-a]pyrimidin-8-yl]phenyl trifluoromethanesulfonate]	464
NC1=NC(c2cccc(OS(=O)(=O)C(F)(F)F)c2)(c2cccc(-c3cccnc3)c2)C2=NCCCN12 (stereo not drawn) [Example 130, 3-[6-Amino-8-(3-pyridin-3-ylphenyl)-2,3,4,8-tetrahydroimidazo[1,5-a]pyrimidin-8-yl]phenyl trifluoromethanesulfonate]	137
NC1=NC(c2cccc(OS(=O)(=O)C(F)(F)F)c2)(c2cccc(-c3cc(Cl)cnc3F)c2)C2=NCCCN12 (stereo not drawn) [Example 131, 3-{6-Amino-8-[3-(5-chloro-2-fluoropyridin-3-yl)phenyl]-2,3,4,8-tetrahydroimidazo[1,5-a]pyrimidin-8-yl}phenyl trifluoromethanesulfonate]	538
NC1=NC(c2cccc(OS(=O)(=O)C(F)(F)F)c2)(c2cccc(-c3cncnc3)c2)C2=NCCCN12 (stereo not drawn) [Example 132, 3-[6-Amino-8-(3-pyrimidin-5-ylphenyl)-2,3,4,8-tetrahydroimidazo[1,5-a]pyrimidin-8-yl]phenyl trifluoromethanesulfonate]	375
COc1cc(OS(C)(=O)=O)cc(-c2cccc(C3(c4cccc(OC)c4)N=C(N)N4CCCN=C43)c2)c1 (stereo not drawn) [Example 133, 3′-[6-Amino-8-(3-methoxyphenyl)-2,3,4,8-tetrahydroimidazo[1,5-a]pyrimidin-8-yl]-5-methoxybiphenyl-3-yl methanesulfonate]	375
CN(C)C(=O)c1cccc(C2(c3cccc(-c4cccnc4F)c3)N=C(N)N3CC(F)(F)CN=C32)c1 (stereo not drawn) [Example 145, 3-{6-Amino-3,3-difluoro-8-[3-(2-fluoropyridin-3-yl)phenyl]-2,3,4,8-tetrahydroimidazo[1,5-a]pyrimidin-8-yl}-N,N-dimethylbenzamide]	224
CN(C)C(=O)c1ccc(C2(c3cccc(-c4cccnc4F)c3)N=C(N)N3CC(F)(F)CN=C32)cc1 (stereo not drawn) [Example 146, 4-{6-Amino-3,3-difluoro-8-[3-(2-fluoropyridin-3-yl)phenyl]-2,3,4,8-tetrahydroimidazo[1,5-a]pyrimidin-8-yl}-N,N-dimethylbenzamide]	214

From patent publication US20080051420A1, “New Compounds 317” (AstraZeneca AB, priority 2006, published 2008)
